Measurements taken from patent publication US20190246646A1 (priority 2016, published 2019).

What was measured:
M. oryzae BOA102 [1] = details: for mycelium color / phenotype of the fungal colony: BOA102 exposed to single commercial compound, dual plate; for mycelium growth measured as colony diameter: Student T-test p<0.05
M. oryzae mycelium = details: compound added to fungal growth media; untreated black; cited from earlier work
M. oryzae BOA102 [2] = details: grown in the presence of Tricyclazole

For CCO [ethanol], the “mycelium color / phenotype of the fungal colony” value (shortened to “mycelium color / phenotype”) (M. oryzae BOA102 [1]) was “do not induce appreciable phenotype/color variations” and the “mycelium growth measured as colony diameter” value (“mycelium growth measured” below) (M. oryzae BOA102 [1]) was “No effect”.
In the case of Cc1ccc(C(=O)NC[C@@H](NC(=O)OCC(F)(F)F)C(C)C)cc1 [Tolprocab], the “pigmentation of M. oryzae mycelium” value (M. oryzae mycelium) is given as “white”.
In the case of Cc1cccc2sc3nncn3c12 [Tricyclazole], the “color of the mycelium (DHN melanin inhibition phenotype)” value (M. oryzae BOA102 [2]) is listed as “orange color” and the “pigmentation of M. oryzae mycelium” value (M. oryzae mycelium) is listed as “orange”.
In the case of CC(=O)OCCC(C)C [1-butanol-3-methyl-acetate], the “mycelium color / phenotype” value (M. oryzae BOA102 [1]) is reported as “do not induce appreciable phenotype/color variations” and the “mycelium growth measured” value (M. oryzae BOA102 [1]) is reported as “significant reduction”.
In the case of CC(C)CO [1-propanol-2-methyl], the “mycelium color / phenotype” value (M. oryzae BOA102 [1]) is reported as “do not induce appreciable phenotype/color variations” and the “mycelium growth measured” value (M. oryzae BOA102 [1]) is reported as “significant reduction”.
In the case of CC(C)CCO [1-butanol-3-methyl], the “mycelium color / phenotype” value (M. oryzae BOA102 [1]) is reported as “shift from black to white” and the “mycelium growth measured” value (M. oryzae BOA102 [1]) is reported as “significant reduction”.
